# Measured values reported in patent US10517889B2, “Modulators of SMAD7 expression” (Ionis Pharmaceuticals, Inc., priority 2017, dated 2019).
# Strand notation (5' to 3'): a small letter for the sugar, then the base; units joined by * are phosphorothioate-linked, units joined directly phosphodiester-linked; [ ] holds rarer units or linkages, { } end groups; capitals alone tell only the bases. k = constrained ethyl (cEt); [5mC] = 5-methylcytosine; d = 2'-deoxy (DNA)
# Test system: human SMAD7 mRNA
# Experiment: Antisense inhibition of human SMAD7 mRNA expression in Hep3B cells by 3-10-3 cEt gapmers, 10,000 nM, electroporation (Example 2)
# Format: cell-based
# Details: SMAD7 mRNA, Hep3B cells, electroporation with 10,000 nM antisense oligonucleotide, approximately 24 hours, primer probe set RTS5062, relative to untreated control cells
# Procedure, shortened: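 Hep3B cells (20,000 per well) were electroporated with 10,000 nM 16-mer 3-10-3 cEt gapmer (phosphorothioate, 5-methylcytosine). After about 24 h, SMAD7 mRNA was quantified by qRT-PCR with primer probe set RTS5062, normalised to RIBOGREEN total RNA, and expressed as percent inhibition versus untreated cells.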
row,Substance,% Inhibition
1,829865 (antisense kG*kG*k[5mC]*dG*dG*dA*d[5mC]*dT*dT*dG*dA*dT*dG*kA*kA*kG) [compound 829865],30%
2,829866 (antisense kG*kT*kG*dG*d[5mC]*dG*dG*dA*d[5mC]*dT*dT*dG*dA*kT*kG*kA) [compound 829866],10%
3,829867 (antisense kT*kG*kT*dG*dG*d[5mC]*dG*dG*dA*d[5mC]*dT*dT*dG*kA*kT*kG) [compound 829867],22%
4,829868 (antisense kA*kG*kT*dG*dT*dG*dG*d[5mC]*dG*dG*dA*d[5mC]*dT*kT*kG*kA) [compound 829868],52%
5,829869 (antisense k[5mC]*kA*kG*dT*dG*dT*dG*dG*d[5mC]*dG*dG*dA*d[5mC]*kT*kT*kG) [compound 829869],37%
6,829870 (antisense k[5mC]*k[5mC]*kA*dG*dT*dG*dT*dG*dG*d[5mC]*dG*dG*dA*k[5mC]*kT*kT) [compound 829870],19%
7,829871 (antisense kG*kT*k[5mC]*d[5mC]*dA*dG*dT*dG*dT*dG*dG*d[5mC]*dG*kG*kA*k[5mC]) [compound 829871],1%
8,829872 (antisense kT*kG*kT*d[5mC]*d[5mC]*dA*dG*dT*dG*dT*dG*dG*d[5mC]*kG*kG*kA) [compound 829872],50%
9,829873 (antisense kT*kT*kG*dT*d[5mC]*d[5mC]*dA*dG*dT*dG*dT*dG*dG*k[5mC]*kG*kG) [compound 829873],52%
10,829874 (antisense kG*kT*kT*dG*dT*d[5mC]*d[5mC]*dA*dG*dT*dG*dT*dG*kG*k[5mC]*kG) [compound 829874],43%
11,829875 (antisense k[5mC]*kG*kG*dG*dT*dT*dG*dT*d[5mC]*d[5mC]*dA*dG*dT*kG*kT*kG) [compound 829875],52%
12,829876 (antisense k[5mC]*k[5mC]*kG*dG*dG*dT*dT*dG*dT*d[5mC]*d[5mC]*dA*dG*kT*kG*kT) [compound 829876],30%
13,829877 (antisense kT*k[5mC]*k[5mC]*dG*dG*dG*dT*dT*dG*dT*d[5mC]*d[5mC]*dA*kG*kT*kG) [compound 829877],42%
14,829878 (antisense kG*kA*kG*dT*d[5mC]*d[5mC]*dG*dG*dG*dT*dT*dG*dT*k[5mC]*k[5mC]*kA) [compound 829878],18%
15,829879 (antisense kT*kG*kG*dA*dG*dT*d[5mC]*d[5mC]*dG*dG*dG*dT*dT*kG*kT*k[5mC]) [compound 829879],29%
16,829880 (antisense kT*k[5mC]*k[5mC]*dT*dG*dG*dA*dG*dT*d[5mC]*d[5mC]*dG*dG*kG*kT*kT) [compound 829880],32%
17,829881 (antisense k[5mC]*kG*kT*d[5mC]*d[5mC]*dT*dG*dG*dA*dG*dT*d[5mC]*d[5mC]*kG*kG*kG) [compound 829881],39%
18,829882 (antisense kA*kG*kG*d[5mC]*dT*dG*dT*dA*d[5mC]*dG*d[5mC]*d[5mC]*dT*kT*k[5mC]*kT) [compound 829882],3%
19,829883 (antisense k[5mC]*kA*kG*dG*d[5mC]*dT*dG*dT*dA*d[5mC]*dG*d[5mC]*d[5mC]*kT*kT*k[5mC]) [compound 829883],0%

row,Substance,% Inhibition
1,829884 (antisense kT*kG*k[5mC]*dA*dG*dG*d[5mC]*dT*dG*dT*dA*d[5mC]*dG*k[5mC]*k[5mC]*kT) [compound 829884],24%
2,829885 (antisense k[5mC]*k[5mC]*kG*d[5mC]*dT*dG*d[5mC]*dA*dG*dG*d[5mC]*dT*dG*kT*kA*k[5mC]) [compound 829885],31%
3,829886 (antisense kG*kT*kG*dG*dT*d[5mC]*dA*dT*dT*dG*dG*dG*d[5mC]*k[5mC]*kG*k[5mC]) [compound 829886],6%
4,829887 (antisense k[5mC]*kG*kT*dG*dG*dT*d[5mC]*dA*dT*dT*dG*dG*dG*k[5mC]*k[5mC]*kG) [compound 829887],47%
5,829888 (antisense kG*kT*k[5mC]*d[5mC]*dA*d[5mC]*dG*dG*d[5mC]*dT*dG*d[5mC]*dT*kG*k[5mC]*kA) [compound 829888],47%
6,829889 (antisense k[5mC]*kG*kT*d[5mC]*d[5mC]*dA*d[5mC]*dG*dG*d[5mC]*dT*dG*d[5mC]*kT*kG*k[5mC]) [compound 829889],48%
7,829890 (antisense kA*kA*kG*d[5mC]*d[5mC]*d[5mC]*dG*dT*d[5mC]*d[5mC]*dA*d[5mC]*dG*kG*k[5mC]*kT) [compound 829890],0%
8,829891 (antisense kA*kT*k[5mC]*dT*dG*d[5mC]*dA*d[5mC]*dG*dG*dT*dA*dA*kA*kG*k[5mC]) [compound 829891],25%
9,829892 (antisense kG*kA*kT*d[5mC]*dT*dG*d[5mC]*dA*d[5mC]*dG*dG*dT*dA*kA*kA*kG) [compound 829892],32%
10,829893 (antisense kT*kG*kA*dT*d[5mC]*dT*dG*d[5mC]*dA*d[5mC]*dG*dG*dT*kA*kA*kA) [compound 829893],14%
11,829894 (antisense kG*k[5mC]*kT*dG*dA*dT*d[5mC]*dT*dG*d[5mC]*dA*d[5mC]*dG*kG*kT*kA) [compound 829894],41%
12,829895 (antisense kT*k[5mC]*kA*d[5mC]*dA*dA*dA*dG*d[5mC]*dT*dG*dA*dT*k[5mC]*kT*kG) [compound 829895],37%
13,829896 (antisense k[5mC]*kG*kG*dG*dT*dG*dT*dA*dG*d[5mC]*dA*d[5mC]*dT*kG*kG*k[5mC]) [compound 829896],44%
14,829897 (antisense kG*k[5mC]*kG*dG*dG*dT*dG*dT*dA*dG*d[5mC]*dA*d[5mC]*kT*kG*kG) [compound 829897],40%
15,829898 (antisense kT*kG*kG*d[5mC]*dG*dG*dG*dT*dG*dT*dA*dG*d[5mC]*kA*k[5mC]*kT) [compound 829898],31%
16,829899 (antisense kA*k[5mC]*kG*dG*dG*d[5mC]*dA*dG*d[5mC]*dT*dG*d[5mC]*dT*kG*kA*kT) [compound 829899],20%
17,829900 (antisense k[5mC]*kA*k[5mC]*dG*dG*dG*d[5mC]*dA*dG*d[5mC]*dT*dG*d[5mC]*kT*kG*kA) [compound 829900],0%
18,829901 (antisense kA*kG*k[5mC]*dA*d[5mC]*dG*dG*dG*d[5mC]*dA*dG*d[5mC]*dT*kG*k[5mC]*kT) [compound 829901],10%
19,829902 (antisense k[5mC]*kA*kG*d[5mC]*dA*d[5mC]*dG*dG*dG*d[5mC]*dA*dG*d[5mC]*kT*kG*k[5mC]) [compound 829902],0%

row,Substance,% Inhibition
1,829903 (antisense k[5mC]*kT*kG*dT*dT*dG*dA*dA*dG*dA*dT*dG*dA*k[5mC]*k[5mC]*kT) [compound 829903],25%
2,829904 (antisense kG*k[5mC]*kT*dG*dT*dT*dG*dA*dA*dG*dA*dT*dG*kA*k[5mC]*k[5mC]) [compound 829904],21%
3,829905 (antisense k[5mC]*kG*kG*d[5mC]*dT*dG*dT*dT*dG*dA*dA*dG*dA*kT*kG*kA) [compound 829905],20%
4,829906 (antisense k[5mC]*k[5mC]*kG*dG*d[5mC]*dT*dG*dT*dT*dG*dA*dA*dG*kA*kT*kG) [compound 829906],0%
5,829907 (antisense kA*k[5mC]*k[5mC]*dG*dG*d[5mC]*dT*dG*dT*dT*dG*dA*dA*kG*kA*kT) [compound 829907],23%
6,829908 (antisense k[5mC]*kT*kA*d[5mC]*d[5mC]*dG*dG*d[5mC]*dT*dG*dT*dT*dG*kA*kA*kG) [compound 829908],1%
7,829909 (antisense k[5mC]*kG*kG*d[5mC]*dT*dA*d[5mC]*d[5mC]*dG*dG*d[5mC]*dT*dG*kT*kT*kG) [compound 829909],34%
8,829910 (antisense kG*kA*kG*dT*dT*dT*dG*d[5mC]*dA*dT*dG*dA*dA*kA*kA*kG) [compound 829910],49%
9,829911 (antisense k[5mC]*kG*kA*d[5mC]*d[5mC]*dA*dA*dA*dG*dA*dG*dT*dT*kT*kG*k[5mC]) [compound 829911],52%
10,829912 (antisense kA*kA*k[5mC]*dG*dA*d[5mC]*d[5mC]*dA*dA*dA*dG*dA*dG*kT*kT*kT) [compound 829912],24%
11,829913 (antisense k[5mC]*k[5mC]*kT*dT*dG*dG*dG*dT*dT*dA*dT*dG*dA*k[5mC]*kG*kG) [compound 829913],40%
12,829914 (antisense kA*k[5mC]*k[5mC]*dT*dT*dG*dG*dG*dT*dT*dA*dT*dG*kA*k[5mC]*kG) [compound 829914],35%
13,829915 (antisense kG*kG*kT*dA*d[5mC]*d[5mC]*dT*dT*dG*dG*dG*dT*dT*kA*kT*kG) [compound 829915],22%
14,829916 (antisense kG*kA*kA*dG*dA*dG*dT*dT*dA*dG*dG*dT*dG*kT*k[5mC]*kA) [compound 829916],33%
15,829917 (antisense kA*kG*kT*dG*dT*dA*dT*dG*dA*dG*dT*dT*dG*kT*kA*kG) [compound 829917],45%
16,829918 (antisense kG*kA*kG*dT*dG*dT*dA*dT*dG*dA*dG*dT*dT*kG*kT*kA) [compound 829918],53%
17,829919 (antisense k[5mC]*kG*kA*dG*dT*dG*dT*dA*dT*dG*dA*dG*dT*kT*kG*kT) [compound 829919],47%
18,829920 (antisense kA*kT*kA*d[5mC]*dG*dA*dG*dT*dG*dT*dA*dT*dG*kA*kG*kT) [compound 829920],30%
